The target in data set [1] is T1, glucocorticoid receptor (GR) (Homo sapiens, UniProt P04150).
T1 construct: made in house; host or cells: Sf9 insect cells infected with recombinant baculovirus; cytosol preparation
T1 sequence (P04150 1-777): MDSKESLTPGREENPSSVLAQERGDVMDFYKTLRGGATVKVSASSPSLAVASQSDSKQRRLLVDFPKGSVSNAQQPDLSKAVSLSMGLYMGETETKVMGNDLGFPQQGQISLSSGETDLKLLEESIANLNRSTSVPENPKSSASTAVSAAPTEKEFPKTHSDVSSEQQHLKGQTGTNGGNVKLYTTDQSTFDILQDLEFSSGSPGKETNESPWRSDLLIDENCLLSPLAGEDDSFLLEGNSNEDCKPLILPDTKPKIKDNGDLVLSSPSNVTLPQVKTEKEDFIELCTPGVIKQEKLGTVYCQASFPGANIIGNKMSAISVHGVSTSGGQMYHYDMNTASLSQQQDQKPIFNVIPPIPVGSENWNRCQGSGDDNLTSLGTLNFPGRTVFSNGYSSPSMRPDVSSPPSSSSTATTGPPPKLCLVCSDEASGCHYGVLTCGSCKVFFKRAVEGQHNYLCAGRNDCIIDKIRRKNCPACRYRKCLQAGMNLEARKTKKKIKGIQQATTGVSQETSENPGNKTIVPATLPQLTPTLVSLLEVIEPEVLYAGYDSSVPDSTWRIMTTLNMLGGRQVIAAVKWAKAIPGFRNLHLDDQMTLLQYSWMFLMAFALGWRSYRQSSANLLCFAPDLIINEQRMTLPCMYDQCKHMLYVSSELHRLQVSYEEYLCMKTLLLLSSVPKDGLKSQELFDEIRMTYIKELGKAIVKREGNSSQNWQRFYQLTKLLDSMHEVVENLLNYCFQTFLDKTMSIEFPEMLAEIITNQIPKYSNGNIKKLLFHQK
The data set is described as follows: glucocorticoid receptor (GR) binding test. The conditions noted are these: cytosol preparations of Sf9 cells infected with recombinant baculoviruses coding for the GR; 10 nM [3H]-dexamethasone. An excerpt: The binding of substances to the glucocorticoid receptor (GR) is examined with the aid of a recombinantly produced receptor. Cytosol preparations of Sf9 cells, which had been infected with recombinant baculoviruses, which code for the GR, are used for the binding studies.

The test system of data set [2] is secretion of cytokine IL-8 in the human monocyte cell line THP-1. Description: inhibition of LPS-triggered IL-8 secretion in THP-1 cells. The note with it: ELISA of supernatant. It counts as cell-based. Also noted: Inhibition of IL-8 Secretion Effectiveness: concentration or dose not given beside the values. As to the method:
The concentration of the cytokines was determined in the supernatant with use of commercially available ELISA kits.
The potency of the antiinflammatory action is determined in a cell test by the inhibition of the secretion of cytokine IL-8. […] The concentration of the cytokines was determined in the supernatant by means of commercially available ELISA kits. In this connection, the compounds of formula 1 show a high to very high potency and action in inhibition (see Table 10).
(In general: In an ELISA, binding on a coated surface is turned into a signal by an enzyme label.)

Data set [3] deals with croton oil-induced inflammation in rats and mice. Description: croton oil-induced inflammation (ear edema). It counts as in vivo. The note with it: systemically two hours before croton oil, ear weight after 16-24 hours. The method, then: The antiinflammatory actions of the compounds of general formula I were tested in the animal experiment by testing in the croton oil-induced inflammation in rats and mice (J. Exp. Med. (1995), 182, 99-108). In this connection, croton oil in ethanolic solution was administered topically to the animals' ears. The test substances were also administered topically or systemically simultaneously with or two hours before the croton oil. After 16-24 hours, the ear weight was measured as a yardstick of the inflammatory edema, the peroxidase activity was measured as a yardstick of the invasions of granuloctyes, and the elastase activity was measured as a yardstick of the invasions of neutrophilic granuloctyes. In this test, the compounds of general formula I inhibit the three above-mentioned inflammation parameters both after topical administration and after systemic administration.
The antiinflammatory actions of the compounds of general formula I were tested in the animal experiment in the croton oil-induced inflammation in rats and mice (J. Exp. Med. (1995), 182, 99-108). In this respect, croton oil in an ethanolic solution was administered topically to the ears in the animals. The test substances were systemically administered two hours before the croton oil. After 16-24 hours, the ear weight was measured as a yardstick of the inflammatory edema.

For data set [4], the system named is tyrosinamino transferase (TAT). The note with it: in vivo.
Description: (§1) The activity of this enzyme can be determined photometrically from liver homogenates and represents a good yardstick of the undesirable metabolic actions of the glucocorticoids. To measure the TAT induction, the animals are sacrificed 8 hours after the test substances are administered, the livers are removed, and the TAT activity in the homogenate is measured.
(§2) As a parameter for the side effects of the steroid-induced catabolic metabolism, the activity of the enzyme tyrosinamino transferase (TAT) was determined from liver homogenates by photometry. The activity represents a good yardstick of the undesirable metabolic actions of the glucocorticoids. To measure the TAT induction, the animals are sacrificed 8 hours after the test substances are administered, the livers are removed, and the TAT activity in the homogenate is measured.
In data set [5] the test system is tyrosinamino transferase (TAT). Description: induction of tyrosinamino transferase (TAT) activity in liver homogenates. The note with it: liver homogenate 8 hours after administration, n-fold increase compared to untreated animals.
Description: as §1, §2

Like-named read-outs stand apart in the source and are kept apart here.

The IC50 is the midpoint of a concentration-inhibition curve. For the molecule `Cc1noc(=O)c2ccc(NC(=O)C(O)(CC(C)(C)c3ccc(F)cc3Cl)C(F)(F)F)cc12` (single isomer, unassigned; (+)) [Example 3, compound 9, (+)-6-[4-(2-chloro-4-fluoro-phenyl)-2-hydroxy-4-methyl-2-trifluoromethylvaleroyl]-amino-4-methyl-2,3-benzoxazin-1-one], the IC50 in data set [1] is below 0.3 nM. In data set [2], the midpoint of inhibition, the IC50, lay at 65 nM and the “Inhibition of IL-8 Secretion Effectiveness” value is recorded as 51%. In data set [3], the “Edema inhibition with 3 mg/kg” value stood at 50% and the “Edema inhibition with 30 mg/kg” value came out at 92%.
On the same counts, the results for `Cc1noc(=O)c2ccc(NC(=O)C(O)(CC3(c4cc(F)ccc4Cl)CC3)C(F)(F)F)cc12` (single isomer, unassigned; (+)) [Example 16, compound 13, (+)-6-[3-{1-(2-chloro-5-fluorophenyl)-cyclopropyl}-2-hydroxy-2-trifluoromethyl-propionyl]-amino-4-methyl-2,3-benzoxazin-1-one] are below 0.3 nM, 9.6 nM, 58%, 47% and 106%.
Regarding `Cc1noc(=O)c2ccc(NC(=O)C(O)(CC3(c4cc(F)ccc4Cl)CCC3)C(F)(F)F)cc12` (single isomer, unassigned; (+)) [Example 16, compound 16, (+)-6-[3-{1-(2-chloro-5-fluorophenyl)-cyclobutyl}-2-hydroxy-2-trifluoromethyl-propionyl]-amino-4-methyl-2,3-benzoxazin-1-one], in data set [1], the IC50 was found to be 0.62 nM. For the same molecule, in data set [2], the IC50 is 10 nM and the “Inhibition of IL-8 Secretion Effectiveness” value was 80%. For the same molecule, in data set [3], the “Edema inhibition with 3 mg/kg” value is given as 54% and the “Edema inhibition with 30 mg/kg” value is given as 78%. In addition, in data set [4], the “Induction factor for TAT with 3 mg/kg” value came to 1.3 and the “Induction factor for TAT with 30 mg/kg” value worked out at 2.0.
Turning to `Cc1noc(=O)c2ccc(NC(=O)C(O)(CC3(c4ccccc4C(F)(F)F)CCC3)C(F)(F)F)cc12` (single isomer, unassigned; (+)) [Example 16, compound 26, (+)-6-[3-{1-(2-trifluoromethyl-phenyl)-cyclobutyl}-2-hydroxy-2-trifluoromethylpropionyl]-amino-4-methyl-2,3-benzoxazin-1-one], the IC50 in data set [1] turned out to be 16 nM. Further, in data set [2], the half-inhibitory concentration (IC50) turned out to be 4.3 nM and the “Inhibition of IL-8 Secretion Effectiveness” value was found to be 77%. Also, in data set [3], the “Edema inhibition with 3 mg/kg” value stood at 11% and the “Edema inhibition with 30 mg/kg” value is 81%. Also, in data set [4], the “Induction factor for TAT with 3 mg/kg” value worked out at 1.4 and the “Induction factor for TAT with 30 mg/kg” value amounted to 3.7.
For `Cc1noc(=O)c2ccc(NC(=O)C(O)(CC3(c4cc(F)ccc4C(F)(F)F)CCC3)C(F)(F)F)cc12` (single isomer, unassigned; (+)) [Example 16, compound 33, (+)-6-[3-{1-(5-fluoro-2-trifluoromethyl-phenyl)-cyclobutyl}-2-hydroxy-2-trifluoromethylpropionyl]-amino-4-methyl-2,3-benzoxazin-1-one], the IC50 in data set [1] came out at 1.1 nM. In data set [2], the IC50 amounted to 30 nM and the “Inhibition of IL-8 Secretion Effectiveness” value came to 45%. In data set [3], the “Edema inhibition with 3 mg/kg” value worked out at 77% and the “Edema inhibition with 30 mg/kg” value is given as 86%.
For the molecule `C[C@]12C=CC(=O)C=C1CC[C@@H]1[C@@H]2[C@@H](O)C[C@@]2(C)[C@H]1CC[C@]2(O)C(=O)CO` [Prednisolone, reference compound], the “Inhibition of IL-8 Secretion Effectiveness” value in data set [2] stood at 95%. The molecule further came in with an IC50 in data set [2] (Homo sapiens) of 24 nM. In addition, the “Induction factor for TAT with 3 mg/kg” value in data set [5] (3 mg/kg) is listed as 2.6. For the same molecule, the “Induction factor for TAT with 30 mg/kg” value in data set [5] (30 mg/kg) is 8.0. In data set [3], the “Edema inhibition with 3 mg/kg” value amounted to 35% and the “Edema inhibition with 30 mg/kg” value worked out at 84%.

(Values after US20020077356A1, “Nonsteroidal antiinflammatory agents” (priority 2000, published 2002).)
